Data as given in patent US11820766B2, “Monoacylglycerol lipase modulators” (Janssen Pharmaceutica NV, priority 2018, dated 2023).

Biological target: T1, human MGL from HeLa cells (Homo sapiens, UniProt Q99685)
T1 construct: combining endogenously expressed MGL from HeLa cells with test compounds; endogenous in cells; host or cells: HeLa cells / cell homogenates
T1 sequence (Q99685 1-303): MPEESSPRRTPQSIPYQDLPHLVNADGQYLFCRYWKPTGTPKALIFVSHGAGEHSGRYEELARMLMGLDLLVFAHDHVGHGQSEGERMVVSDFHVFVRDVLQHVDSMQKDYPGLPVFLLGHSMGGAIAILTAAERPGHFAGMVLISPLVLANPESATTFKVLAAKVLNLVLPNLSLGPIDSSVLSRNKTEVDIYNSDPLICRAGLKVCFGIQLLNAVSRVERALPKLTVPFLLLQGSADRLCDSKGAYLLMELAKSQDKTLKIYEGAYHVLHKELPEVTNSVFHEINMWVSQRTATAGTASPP
Assay: In vitro MGL activity assay: [glycerol-1,3-3H]-oleyl glycerol cleavage by MGL from HeLa cells
Assay type: biochemical
Details: 300 nM [Glycerol-1,3-3H]-oleyl glycerol, one hour
Description: MGL is the predominant hydrolase in HeLa cells/cell homogenates.

IC50	Compound
32.1 nM	C[C@H]1c2nn(C)c(-c3cc(F)c(F)c(F)c3)c2CCN1C(=O)c1cnn(C)c1C1(F)CC1 [Example 335, [(7S)-2,7-Dimethyl-3-(3,4,5-trifluorophenyl)-5,7-dihydro-4H-pyrazolo[3,4-c]pyridin-6-yl]-[5-(1-fluorocyclopropyl)-1-methyl-pyrazol-4-yl]methanone]
8.7 nM	C[C@H]1c2nn(C)c(-c3cc(F)c(F)c(F)c3)c2CCN1C(=O)c1cnn(C)c1C1CC1(F)F (stereo partly drawn) [Example 336, (5-(2,2-Difluorocyclopropyl)-1-methyl-1H-pyrazol-4-yl)((S)-2,7-dimethyl-3-(3,4,5-trifluorophenyl)-4,5-dihydro-2H-pyrazolo[3,4-c]pyridin-6-yl)methanone]
9.53 nM	CC1CC1c1c(C(=O)N2CCc3c(nn(C)c3-c3cc(F)c(F)c(F)c3)[C@@H]2C)cnn1C (stereo partly drawn) [Example 341, ((S)-2,7-Dimethyl-3-(3,4,5-trifluorophenyl)-2,4,5,7-tetrahydro-6H-pyrazolo[3,4-c]pyridin-6-yl)(1-methyl-cis-5-(2-methylcyclopropyl)-1H-pyrazol-4-yl)methanone]
308 nM	Cc1nn(C)cc1C(=O)N1CCc2c(nn(C)c2-c2cc(F)c(F)c(F)c2)[C@@H]1C [Example 343, (1,3-Dimethylpyrazol-4-yl)-[(7S)-2,7-dimethyl-3-(3,4,5-trifluorophenyl)-5,7-dihydro-4H-pyrazolo[3,4-c]pyridin-6-yl]methanone]
58.1 nM	Cc1nn(C)c(C)c1C(=O)N1CCc2c(nn(C)c2-c2cc(F)c(F)c(F)c2)[C@@H]1C [Example 344, [(7S)-2,7-Dimethyl-3-(3,4,5-trifluorophenyl)-5,7-dihydro-4H-pyrazolo[3,4-c]pyridin-6-yl]-(1,3,5-trimethylpyrazol-4-yl)methanone]
52.8 nM	Cc1c(C(=O)N2CCc3c(nn(C)c3-c3cc(F)c(F)c(F)c3)[C@@H]2C)cnn1C [Example 345, (1,5-Dimethylpyrazol-4-yl)-[(7S)-2,7-dimethyl-3-(3,4,5-trifluorophenyl)-5,7-dihydro-4H-pyrazolo[3,4-c]pyridin-6-yl]methanone]
22.4 nM	C[C@H]1c2nn(C)c(-c3cc(F)c(F)c(F)c3)c2CCN1C(=O)c1cnn(C2CC2)c1C(F)(F)F [Example 346, [1-Cyclopropyl-5-(trifluoromethyl)pyrazol-4-yl]-[(7S)-2,7-dimethyl-3-(3,4,5-trifluorophenyl)-5,7-dihydro-4H-pyrazolo[3,4-c]pyridin-6-yl]methanone]
2490 nM	C[C@H]1c2nn(C)c(-c3cc(F)c(F)c(F)c3)c2CCN1C(=O)c1cn(C)nc1C1(C)CC1 [Example 347, [(7S)-2,7-Dimethyl-3-(3,4,5-trifluorophenyl)-5,7-dihydro-4H-pyrazolo[3,4-c]pyridin-6-yl]-[1-methyl-3-(1-methylcyclopropyl)pyrazol-4-yl]methanone]
848 nM	C[C@H]1c2nn(C)c(-c3cc(F)c(F)c(F)c3)c2CCN1C(=O)c1cn(C)nc1C1(F)CC1 [Example 348, [(7S)-2,7-Dimethyl-3-(3,4,5-trifluorophenyl)-5,7-dihydro-4H-pyrazolo[3,4-c]pyridin-6-yl]-[3-(1-fluorocyclopropyl)-1-methyl-pyrazol-4-yl]methanone]
1080 nM	C[C@@H]1c2nn(-c3ccccc3)c(-c3ccccc3)c2CCN1C(=O)c1cnn(C)c1C1CC1 [Example 349, (R)-(5-cyclopropyl-1-methyl-1H-pyrazol-4-yl) (7-methyl-2,3-diphenyl-2,4,5,7-tetrahydro-6H-pyrazolo[3,4-c]pyridin-6-yl) methanone]
27.6 nM	C[C@H]1c2nn(-c3ccccc3)c(-c3ccccc3)c2CCN1C(=O)c1cnn(C)c1C1CC1 [Example 350, (S)-(5-cyclopropyl-1-methyl-1H-pyrazol-4-yl) (7-methyl-2,3-diphenyl-2,4,5,7-tetrahydro-6H-pyrazolo[3,4-c]pyridin-6-yl)methanone]
8.9 nM	Cc1c(C(=O)N2CCc3c(nn(C)c3-c3cc(F)c(F)c(F)c3)[C@@H]2C)ccn1C [Example 351, (1,2-Dimethylpyrrol-3-yl)-[(7S)-2,7-dimethyl-3-(3,4,5-trifluorophenyl)-5,7-dihydro-4H-pyrazolo[3,4-c]pyridin-6-yl]methanone]
30.5 nM	Cc1onc(C(=O)N2CCc3c(nn(C)c3-c3cc(F)c(F)c(F)c3)[C@@H]2C)c1C [Example 352, (4,5-Dimethylisoxazol-3-yl)-[(7S)-2,7-dimethyl-3-(3,4,5-trifluorophenyl)-5,7-dihydro-4H-pyrazolo[3,4-c]pyridin-6-yl]methanone]
48.5 nM	C[C@H]1c2nn(C)c(-c3cc(F)c(F)c(F)c3)c2CCN1C(=O)c1cc2[nH]ccc2cc1F [Example 353, [(7S)-2,7-Dimethyl-3-(3,4,5-trifluorophenyl)-5,7-dihydro-4H-pyrazolo[3,4-c]pyridin-6-yl]-(5-fluoro-1H-indol-6-yl)methanone]
2.23 nM	C[C@H]1c2nn(C)c(-c3cc(F)c(F)c(F)c3)c2CCN1C(=O)c1ccc(F)c2[nH]ccc12 [Example 354, [(7S)-2,7-Dimethyl-3-(3,4,5-trifluorophenyl)-5,7-dihydro-4H-pyrazolo[3,4-c]pyridin-6-yl]-(7-fluoro-1H-indol-4-yl)methanone]
22.8 nM	C[C@H]1c2nn(C)c(-c3cc(F)c(F)c(F)c3)c2CCN1C(=O)c1c[nH]c2ccc(F)cc12 [Example 355, [(7S)-2,7-Dimethyl-3-(3,4,5-trifluorophenyl)-5,7-dihydro-4H-pyrazolo[3,4-c]pyridin-6-yl]-(5-fluoro-1H-indol-3-yl)methanone]
18.6 nM	C[C@H]1c2nn(C)c(-c3cc(F)c(F)c(F)c3)c2CCN1C(=O)c1cn(C)c2ccc(F)cc12 [Example 356, [(7S)-2,7-Dimethyl-3-(3,4,5-trifluorophenyl)-5,7-dihydro-4H-pyrazolo[3,4-c]pyridin-6-yl]-(5-fluoro-1-methyl-indol-3-yl)methanone]
8.88 nM	C[C@H]1c2nn(C)c(-c3cc(F)c(F)c(F)c3)c2CCN1C(=O)c1c[nH]c2cccc(F)c12 [Example 357, [(7S)-2,7-Dimethyl-3-(3,4,5-trifluorophenyl)-5,7-dihydro-4H-pyrazolo[3,4-c]pyridin-6-yl]-(4-fluoro-1H-indol-3-yl)methanone]
37.6 nM	C[C@H]1c2nn(C)c(-c3cc(F)c(F)c(F)c3)c2CCN1C(=O)c1c[nH]c2cc(F)ccc12 [Example 358, [(7S)-2,7-Dimethyl-3-(3,4,5-trifluorophenyl)-5,7-dihydro-4H-pyrazolo[3,4-c]pyridin-6-yl]-(6-fluoro-1H-indol-3-yl)methanone]
31 nM	C[C@H]1c2nn(C)c(-c3cc(F)c(F)c(F)c3)c2CCN1C(=O)c1c[nH]c2c(F)cccc12 [Example 359, [(7S)-2,7-Dimethyl-3-(3,4,5-trifluorophenyl)-5,7-dihydro-4H-pyrazolo[3,4-c]pyridin-6-yl]-(7-fluoro-1H-indol-3-yl)methanone]
46.8 nM	Cc1ccc2c(C(=O)N3CCc4c(nn(C)c4-c4cc(F)c(F)c(F)c4)[C@@H]3C)c[nH]c2c1 [Example 360, [(7S)-2,7-Dimethyl-3-(3,4,5-trifluorophenyl)-5,7-dihydro-4H-pyrazolo[3,4-c]pyridin-6-yl]-(6-methyl-1H-indol-3-yl)methanone]
14.6 nM	C[C@H]1c2nn(C)c(-c3cc(F)c(F)c(F)c3)c2CCN1C(=O)c1n[nH]c2ccccc12 [Example 361, [(7S)-2,7-Dimethyl-3-(3,4,5-trifluorophenyl)-5,7-dihydro-4H-pyrazolo[3,4-c]pyridin-6-yl]-(1H-indazol-3-yl)methanone]
2.74 nM	C[C@H]1c2nn(C)c(-c3cc(F)c(F)c(F)c3)c2CCN1C(=O)c1n[nH]c2cccc(F)c12 [Example 362, [(7S)-2,7-Dimethyl-3-(3,4,5-trifluorophenyl)-5,7-dihydro-4H-pyrazolo[3,4-c]pyridin-6-yl]-(4-fluoro-1H-indazol-3-yl)methanone]
44.1 nM	C[C@H]1c2nn(C)c(-c3cc(F)c(F)c(F)c3)c2CCN1C(=O)c1n[nH]c2cc(F)ccc12 [Example 363, [(7S)-2,7-Dimethyl-3-(3,4,5-trifluorophenyl)-5,7-dihydro-4H-pyrazolo[3,4-c]pyridin-6-yl]-(6-fluoro-1H-indazol-3-yl)methanone]
20.3 nM	C[C@H]1c2nn(C)c(-c3cc(F)c(F)c(F)c3)c2CCN1C(=O)c1n[nH]c2ccc(F)cc12 [Example 364, [(7S)-2,7-Dimethyl-3-(3,4,5-trifluorophenyl)-5,7-dihydro-4H-pyrazolo[3,4-c]pyridin-6-yl]-(5-fluoro-1H-indazol-3-yl)methanone]
51.9 nM	C[C@H]1c2nn(C)c(-c3cc(F)c(F)c(F)c3)c2CCN1C(=O)c1cccc2c1ncn2C [Example 366, [(7S)-2,7-Dimethyl-3-(3,4,5-trifluorophenyl)-5,7-dihydro-4H-pyrazolo[3,4-c]pyridin-6-yl]-(1-methylbenzimidazol-4-yl)methanone]
658 nM	C[C@H]1c2nn(C)c(-c3cc(F)c(F)c(F)c3)c2CCN1C(=O)c1cccc2[nH]nnc12 [Example 367, 1H-Benzotriazol-4-yl-[(7S)-2,7-dimethyl-3-(3,4,5-trifluorophenyl)-5,7-dihydro-4H-pyrazolo[3,4-c]pyridin-6-yl]methanone]
9.36 nM	C[C@H]1c2nn(C)c(-c3cc(F)c(F)c(F)c3)c2CCN1C(=O)c1cnc2[nH]ccc2c1 [Example 368, [(7S)-2,7-Dimethyl-3-(3,4,5-trifluorophenyl)-5,7-dihydro-4H-pyrazolo[3,4-c]pyridin-6-yl]-(1H-pyrrolo[2,3-b]pyridin-5-yl)methanone]
